# What was measured:
# [1] = test system: glomerulonephritis induced by anti-glomerular basement membrane serum; assay: Masugi's nephritis model in WKY rats; type: in vivo; conditions: for inhibition of the concentration of urinary proteins / decrease of creatinine concentration in blood: vs control; for decrease of creatinine concentration in blood: 15th day after antiserum
# Procedure: Rabbits were immunized with a trypsin fraction of rat kidney cortex to provide an anti-glomerular basement membrane serum which was intravenously injected to 4-weeks-old female WKY rats (Charles River) in a dose of 2.5 mL/kg body weight to induce glomerulonephritis. After injection of the antiserum, urine of each animal was collected for 24 hours with metabolic cages for rats (Clea Japan, Inc.) on the 1st, 4th, 7th, 10th and 14th days after the injection. The amount of the urine was measured by urine weight and the protein content in the urine was measured by using a kit for assaying proteins in urine and cerebrospinal fluid (Tonein TP-II, Otsuka Pharmaceutical Co., Ltd.) to determine the amount of proteins excreted in urine per day. Serum of the animals subjected to the experiments was collected on the 15th day after injecting the antiserum, and creatinine concentration in blood was measured with a creatinine assay kit (Autosera®), Daiichi Pure Chemicals Co., Ltd.) using a Hitach±7070 model autoanalyzer. The test compound was daily orally administered in a dose of 100 mg/kg body weight twice a day from the date of injecting the anti-glomerular basement membrane serum (about 10:00 a.m. and about 6:00 p.m. in Experiment 1 and about 10:00 a.m. and about 5:00 p.m. in Experiment 2). In the control group, only the solution (a 0.5% aqueous solution of sodium carboxymethylcellulose) was orally administered. The administration volume was 10 mL/kg body weight, and the number of animals (N) was 10.
# [2] = test system: collagen-induced arthritis; assay: Collagen-induced arthritis in rats; type: in vivo, Lewis female rats; conditions: 300 mg/kg orally every day for 3 weeks, 5, 7, 9, 12 and 14 days after boosting
# [3] = test system: chronic relapsing experimental allergic encephalomyelitis; assay: Chronic relapsing experimental allergic encephalomyelitis in mice; type: in vivo, SJL/J×PL/J F1 mice; conditions: for Onset Date, First Attack: SJL/J×PL/J F1 mice; for Onset Date, First Attack / Duration of Clinical Sign, First Attack / Onset Date, Second Attack (Relapse): to 41 days after injection of the emulsion; for Maximal Clinical Score, First Attack / Maximal Clinical Score, Second Attack (Relapse): score 0-5, to 41 days after injection of the emulsion
# [4] = molecular target: T1, human MIP-1 α binding to THP-1 cells (Homo sapiens, UniProt P32246); assay: Inhibitory activity against binding of MIP-1 α to THP-1 cells; conditions: concentration of 2 μM
# T1 construct: endogenous in cells; host or cells: THP-1 (whole cells)
# T1 sequence (P32246 1-355): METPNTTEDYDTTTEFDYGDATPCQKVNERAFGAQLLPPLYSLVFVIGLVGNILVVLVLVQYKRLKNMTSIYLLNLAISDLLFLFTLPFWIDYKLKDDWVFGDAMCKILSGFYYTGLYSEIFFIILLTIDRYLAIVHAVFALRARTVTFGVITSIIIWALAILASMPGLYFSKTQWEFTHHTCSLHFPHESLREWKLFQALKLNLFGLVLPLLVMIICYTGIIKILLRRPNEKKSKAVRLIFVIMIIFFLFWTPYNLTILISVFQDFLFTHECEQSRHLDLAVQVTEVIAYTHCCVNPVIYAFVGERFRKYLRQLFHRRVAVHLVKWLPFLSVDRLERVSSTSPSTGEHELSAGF
# Procedure: THP-1 cells which are human monocytic leukemia cell line were suspended in an assay buffer [prepared by adding 0.1% of BSA and 25 mM of HEPES to RPMI-1640 (Gibco-BRL Co.) and adjusting the pH to 7.4] so as to provide 1×10^7 cells/mL to thereby afford a cell suspension. A solution obtained by diluting the test compound with the assay buffer was used as a test compound solution. A solution prepared by diluting an iodine-labeled human MIP-1 α (DuPont NEN Co.) with the assay buffer so as to provided 250 nCi/mL was used as a labeled ligand solution. […]
# (§1) After completing the reaction, the reaction solution was filtered through a filter, and the filter was washed with 200 μL of cold PBS twice (the reaction solution was filtered after adding 200 μL of the cold PBS). The filter was air-dried, and 25 μL of liquid scintillator was then added into each well to count the radioactivity retained by the cells on the filter using TopCount (Packard Instrument Co.).
# (§2) The count when 100 ng of an unlabeled human MIP-1 α (Peprotech Co.) instead of the test compound was added was subtracted as nonspecific adsorption, and the count when the test compound was not added was taken as 100%. Thereby, the inhibitory activity of the test compound against binding of the human MIP-1 α to THP-1 cells was calculated. […]
# [5] = molecular target: T2, human MCP-1 binding to THP-1 cells (Homo sapiens, UniProt P41597); assay: Inhibitory activity against binding of [125I]-labeled human MCP-1 to THP-1 cells (method 1); conditions: concentration of 10 μM
# T2 construct: endogenous in cells; host or cells: THP-1 (whole cells)
# T2 sequence (P41597 1-360 isoform P41597-2): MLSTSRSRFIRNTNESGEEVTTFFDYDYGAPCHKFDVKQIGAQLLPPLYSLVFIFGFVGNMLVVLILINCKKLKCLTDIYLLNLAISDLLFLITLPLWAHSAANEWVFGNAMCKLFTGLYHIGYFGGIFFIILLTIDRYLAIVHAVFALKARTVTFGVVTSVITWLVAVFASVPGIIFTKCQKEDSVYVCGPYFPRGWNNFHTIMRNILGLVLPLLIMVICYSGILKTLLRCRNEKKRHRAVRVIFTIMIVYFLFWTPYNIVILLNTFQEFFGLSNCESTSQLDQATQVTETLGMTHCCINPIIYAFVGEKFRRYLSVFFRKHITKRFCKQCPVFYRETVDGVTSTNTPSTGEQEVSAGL
# Text: Two kinds of DNA synthetic primers (5′-[…]-3′ (SEQ ID NO:1) and 5′-[…]-3′) (SEQ ID NO:2) having restriction enzyme recognition sites applied on the basis of the known human MCP-1 gene sequence (see, for example, Yoshimura, T. et al. FEBS Letters 1989, 244, 487-493) were used to amplify a cDNA derived from human vascular endothelial cells (purchased from Kurabow) according to a PCR method. The amplified fragment was cleaved with restriction enzymes (PstI and XbaI) and then ligated into a transfer vector pVL1393 (Invitrogen Co.). The resulting vector was co-transfected with an infectious baculovirus into Sf-9 insect cells. […]
# as §1, with “air-dried” for “air-dried,”, “[…]” for “25 μL”
# as §2, with “the above” for “an unlabeled”, “MCP-1 expressed with baculovirus (unlabeled)” for “MIP-1 α (Peprotech Co.)”, “MCP-1” for “MIP-1 α”
# [6] = test system: collagen-induced arthritis; assay: Collagen-induced arthritis in mice; type: in vivo, DBA/1 mice
# [7] = 7th day after antiserum, 100 mg/kg orally twice a day
# [8] = 10th day after antiserum, 100 mg/kg orally twice a day
# [9] = 14th day after antiserum, 100 mg/kg orally twice a day
# [10] = 300 mg/kg body weight oral, to 21 days after injection of the emulsion
# [11] = 300 mg/kg body weight orally, vs control
# [12] = 100 mg/kg body weight orally, vs control
smiles,measurement,setting,value
Nc1cc(F)c(F)cc1C(=O)NCC(=O)NCC1CCN(Cc2ccc(Cl)cc2)CC1 [compound 1245],inhibition of the concentration of urinary proteins,"[1]; 4th day after antiserum, 100 mg/kg orally twice a day",74%
same,inhibition of the concentration of urinary proteins,[1]; [7],85%
same,inhibition of the concentration of urinary proteins,[1]; [8],81%
same,inhibition of the concentration of urinary proteins,[1]; [9],82%
same,decrease of creatinine concentration in blood,[1]; 100 mg/kg orally twice a day,10%
same,Serum Creatinine Concentration on the 15th Day,"[1]; WKY rats, Experiment 2, 100 mg/kg body weight orally twice a day, 15th day after injecting anti-glomerular basement membrane serum, mean ± spread",0.48 ± 0.04 mg/dL
same,joint swelling (hindlimb footpad volume),[2],significantly inhibited joint swelling
same,Maximal Clinical Score,"[3]; 300 mg/kg body weight oral, score 0-5, to 21 days after injection of the emulsion",2.5 ± 1.5
same,Duration of Clinical Sign,[3]; [10],5.4 ± 2.4
same,Incidence (Number of Onset Animals/Number of Immunized Animals),[3]; [10],17/19
same,onset date,[3]; [10],13.2 ± 2.4
same,onset date,[3]; [11],delay in onset date (p<0.05)
same,symptoms (clinical scores),[3]; [11],tendency to inhibit symptoms (no significant difference)
"CCOc1cccc(C(=O)N[C@H](Cc2ccccc2)C(=O)NCC2CCN(Cc3ccc(Cl)cc3)CC2)c1 [Compd. No. 2091, 1-(4-chlorobenzyl)-4-[[N-(3-ethoxybenzoyl)-D-phenylalanyl]aminomethyl]piperidine]",inhibition at 2 µM,[4],50 to 80%
"O=C(CNC(=O)c1cccc(C(F)(F)F)c1)NCC1CCN(Cc2cccc(OC(F)(F)F)c2)CC1 [Compd. No. 927, 1-[3-(trifluoromethoxy)benzyl]-4-[(N-(3-(trifluoromethyl)benzoyl)glycyl)aminomethyl]piperidine]",inhibition at 10 µM,[5],20 to 50%
Nc1ccc(C(F)(F)F)cc1C(=O)NCC(=O)N[C@@H]1CCN(Cc2ccc(Cl)cc2)C1 [Compd. No. 1583],inhibition of the concentration of urinary proteins,[1]; [7],26%
same,inhibition of the concentration of urinary proteins,[1]; [8],51%
same,inhibition of the concentration of urinary proteins,[1]; [9],54%
same,decrease of creatinine concentration in blood,[1]; 100 mg/kg orally twice a day,20%
same,Serum Creatinine Concentration,"[1]; on the 15th Day, 100 mg/kg orally twice a day",0.39 ± 0.03 mg/dL
same,chondrolysis of articular cartilages,"[6]; knee joint, oral 12 weeks",significantly inhibited
same,osteolysis of subchondral bone,"[6]; knee joint, oral 12 weeks",significantly inhibited
same,synovial hyperplasia,"[6]; knee joint, oral 12 weeks",significantly inhibited
same,arthritis scores,"[6]; orally once a day for 12 weeks, vs control group",significantly inhibited arthritis scores
same,"Onset Date, First Attack",[3]; 30 mg/kg body weight oral,12.3 ± 1.9
same,"Maximal Clinical Score, First Attack",[3]; 30 mg/kg body weight oral,3.5 ± 0.9
same,"Maximal Clinical Score, Second Attack (Relapse)",[3]; 30 mg/kg body weight oral,3.7 ± 0.6
same,"Duration of Clinical Sign, First Attack",[3]; 30 mg/kg body weight oral,9.8 ± 3.3
same,"Onset Date, Second Attack (Relapse)",[3]; 30 mg/kg body weight oral,26.3 ± 3.4
same,"onset date, symptoms and onset period at the first attack","[3]; 30 mg/kg body weight orally, vs control",distinct effects on the items were not found
same,"Onset Date, First Attack",[3]; 100 mg/kg body weight oral,13.6 ± 2.0
same,"Maximal Clinical Score, First Attack",[3]; 100 mg/kg body weight oral,2.4 ± 1.3
same,"Maximal Clinical Score, Second Attack (Relapse)",[3]; 100 mg/kg body weight oral,3.0 ± 0.9
same,"Duration of Clinical Sign, First Attack",[3]; 100 mg/kg body weight oral,5.7 ± 3.8
same,"Onset Date, Second Attack (Relapse)",[3]; 100 mg/kg body weight oral,28.5 ± 4.7
same,onset date at the first attack,[3]; [12],tendency to delay the onset date (no significant difference)
same,onset period at the first attack,[3]; [12],shortening of onset period (p<0.05)
same,symptoms (clinical scores) at the first attack,[3]; [12],symptom inhibition (p<0.05)

# — patent US7390830B1, “Remedies or prophylactics for diseases in association with chemokines” (Teijin Limited, priority 1999, dated 2008)
